The subject of this test is chronic cerebral ischemia model rats. The test is described as follows: Immunohistological evaluation of brain in chronic cerebral ischemia model rats (ligation of both carotid arteries). The test is classed as in vivo, rat. As to conditions: for number of GST-pi positive oligodendrocyte in the callosum: after LBCCA, L-carnitine 600 mg/kg/day, cilostazol 50 mg/kg/day, FIG. 2; for number of GST-pi positive oligodendrocyte in the callosum / 8-OHdG positive cell (cell dysfunction by peroxidation): vs vehicle; for 8-OHdG positive cell (cell dysfunction by peroxidation): day 7 to day 28 after LBCCA, FIG. 3; for 8-OHdG positive cell (cell dysfunction by peroxidation) / number of ss-DNA positive cells (marker of apoptosis) / HNE staining positive cells (peroxidative metabolism): P<0.01; for number of ss-DNA positive cells (marker of apoptosis) / HNE staining positive cells (peroxidative metabolism): vs vehicle group; for number of ss-DNA positive cells (marker of apoptosis): FIG. 5; for HNE staining positive cells (peroxidative metabolism): FIG. 4. On the procedure: The cerebroprotective action of cilostazol for inflammatory reaction due to oxidative stress and glial cell was studied using chronic cerebral ischemia model rats as cerebrovascular dementia model animals. Using Wister rats (male, aged 7-8 weeks, body weights of 150-200 g), chronic cerebral ischemia model rats are prepared according to the method of […] et al. (Acta Neuropathol (Berl). 87, 484-492, 1993), i.e. by double-ligating both […] of the rats. As a physiological evaluation, body temperature and body fluid of the rats before/after the preparation are measured, and the cerebral blood flow thereof is analyzed with a Doppler device. To the rats of each administration group of vehicle, L-carnitine, cilostazol, and L-carnitine/cilostazol combination, each defined administration is done every day by natural ingestion from the day when the preparation of ischemia was completed to the final day for the experimental evaluation. […] After brain parenchyma of the rats is sliced in 20 μm, HE and KB stainings and several immunostainings are carried out. The dosage of each trial is 600 mg/kg/day for L-carnitine and 50 mg/kg/day for cilostazol. Regarding glial cell, the astrocyte is evaluated with an antibody for GFAP, the microglia is evaluated with an antibody for Iba-1, and the oligodendrocyte is evaluated with an antibody for glutathione S-transferase p^+ (GST-pi). And, the oxidative stress is evaluated with an antibody for anti 4-hydroxy-2-nonenal (HNE).

The structures appear in SMILES notation.

For the compound `C[N+](C)(C)C[C@H](O)CC(=O)[O-]` [carnitine, L-carnitine], the “number of GST-pi positive oligodendrocyte in the callosum” value is recorded as “increased more than that of the vehicle group”, the “8-OHdG positive cell (cell dysfunction by peroxidation)” value is “significantly decreased” and the “HNE staining positive cells (peroxidative metabolism)” value was “tended to significantly decrease compared with the vehicle group”. Further, the “number of ss-DNA positive cells (marker of apoptosis)” value (day 14) is given as “significantly decreased compared with the vehicle group”.

Regarding `O=C1CCc2cc(OCCCCc3nnnn3C3CCCCC3)ccc2N1` [cilostazol, 6-[4-(1-cyclohexyl-1H-tetrazol-5-yl)butoxy]-3,4-dihydrocarbostyril], the “number of GST-pi positive oligodendrocyte in the callosum” value is reported as “increased more than that of the vehicle group”, the “8-OHdG positive cell (cell dysfunction by peroxidation)” value was “significantly decreased” and the “HNE staining positive cells (peroxidative metabolism)” value is on record as “tended to significantly decrease compared with the vehicle group”. Besides, the “number of ss-DNA positive cells (marker of apoptosis)” value (days 14, 21 and 28) is on record as “significantly decreased compared with the vehicle group”.

(Values after patent US8980919B2, “Combination of a carbostyril and carnitine” (Otsuka Pharmaceutical Co., Ltd., priority 2008, dated 2015).)
